Patent US9611514B2, “Method for selection of hDIS3 PIN domain inhibitors and use of hDIS3 PIN domain inhibitors for cancer treatment” (INSTYTUT BIOCHEMII I BIOFIZYKI POLSKIEJ AKADEMII NAUK, priority 2013, dated 2017)

Assays:
[1] = biological target: T1, isolated PIN domain of hDIS3 (Homo sapiens, UniProt Q9Y2L1); assay: hDIS3 PIN domain endonucleolytic activity assay (RNA substrate digestion, denaturing PAGE, fluorimaging); assay type: biochemical; conditions: 80 μM concentration; 5′ fluoresceine-labeled ss17-(A)34 substrate; 1 mM manganese
T1 construct: made in house
T1 sequence (Q9Y2L1 1-217): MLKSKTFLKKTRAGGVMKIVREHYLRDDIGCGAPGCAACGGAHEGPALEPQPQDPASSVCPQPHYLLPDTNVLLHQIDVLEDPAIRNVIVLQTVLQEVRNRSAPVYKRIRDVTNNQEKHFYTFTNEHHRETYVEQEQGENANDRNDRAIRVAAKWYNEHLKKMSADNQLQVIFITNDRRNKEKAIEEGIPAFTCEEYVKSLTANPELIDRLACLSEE
Method: FIGS. 11A-B. 2-hydroxy-(4H)-isoquinoline-1,3-dione (AClLAHYL) inhibits the endonucleolytic activity of isolated PIN domain of hDIS3. A) SDS-PAGE analysis of the recombinant hDIS3 PIN domain; B) Activity assay. 5′ fluoresceine-labeled ss17-(A)34 substrate was incubated in a buffer containing 1 mM manganese with recombinant hDIS3 PIN domain in the presence or absence of 2-hydroxy-(4H)-isoquinoline-1,3-dione. A control reaction was also performed, which contained the inhibitor but lacked any added protein. Reactions were terminated at the indicated time points, followed by denaturing PAGE and fluorimaging.
In vitro enzymatic assays of hDIS3 exoribonucleolytic activity were performed in 10 mM Tris-HCl, pH 8.0; 75 mM NaCl; 1 mM 2-mercaptoethanol, 100 μM MgCl2. Protein concentration was 0.1 μM, while substrate concentration was 0.2 μM or 2 μM for duplex and unstructured RNA molecules, respectively. For gel-based analyses, reactions were performed at 37° C. for the indicated times and then terminated by formamide loading dye Reaction products were resolved in denaturing 20% polyacrylamide, 8 M urea, 1xTBE gels. In the case of TLC-based experiment, samples were collected by mixing aliquots of the reaction mixtures with 1 μl of 0.5 M EDTA and subsequently analysed by running them on PEI-cellulose plates (Schleicher & Schuell) in 0.5 M LiCl/1M formic acid, using non-radioactive UMP as a marker. […]

[2] = test system: yeast harboring G833R mutation (dis3-G833R); assay: Yeast growth assay, serial dilutions spotted on YPD plates; assay type: cell-based, S. cerevisiae; conditions: 1 mM in YPD plates, 30° C., 60 hours
Method: (§1) FIG. 12. […] Serial dilutions of indicated yeast strains were spotted on YPD plates and YPD plates with 2-hydroxy-(4H)-isoquinoline-1,3-dione (at 1 mM concentration) and incubated at 30° C. for 60 hours.
(§2) Yeast strains described above were grown in complete YPD medium at 30° C. overnight until OD600 reached 0.2 before spotting serial dilutions onto YPD plates. Cell growth was analyzed after 60 h of incubation at 25° C., 30° C. or 37° C. Analysis of viability for strains harboring mutations in both PIN and RNB domains of Dis3 was carried out by sporulation of ADZY713 and ADZY716 diploid strains, followed by tetrad dissection.
(§3) Yeast strains harboring G833R or R847K mutations, obtained in Example II were used for growth assays. Serial dilutions of indicated yeast strains were spotted on YPD plates and YPD plates with 2-hydroxy-(4H)-isoquinoline-1,3-dione (at 1 mM concentration) and incubated at 30° C. for 60 hours.

[3] = test system: yeast harboring R847K mutation (dis3-R847K); assay: as above; assay type: cell-based, S. cerevisiae; conditions: 1 mM in YPD plates, 30° C., 60 hours
Method: as §1, §2, §3

O=C1Cc2ccccc2C(=O)N1O [2-hydroxy-(4H)-isoquinoline-1,3-dione]
inhibition of the endonucleolytic activity of human DIS3 PIN domain [1]: efficiently inhibited | growth inhibition of yeast harboring G833R mutation [2]: complete growth inhibition | growth inhibition of yeast harboring R847K mutation [3]: complete growth inhibition
